These results are taken from article PMC6934184, “Selective DNA-PKcs inhibition extends the therapeutic index of localized radiotherapy and chemotherapy” (The Journal of Clinical Investigation, 2019).

This assay has as its target T1, CDK2/cyclin E1 (Homo sapiens, UniProt P24941).
T1 construct: purchased Thermo Fisher Scientific (Life Technologies) SelectScreen
The experiment in a line: SelectScreen LanthaScreen. In kind it is binding. The conditions noted are these: 1 µM. A digest of the protocol: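 Percent values come from Thermo SelectScreen profiling of NU5455, combining activity and binding assays. CSF1R was run in Z'LYTE format at Km app ATP, and CAMK1 in Adapta format with ATP listed at 10.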

In the case of `CN(C(=O)CN1CCOCC1)c1ccc2sc3c(-c4cccc5c(=O)cc(N6CC7CCC(C6)O7)oc45)cccc3c2c1` [NU5455], the “% displacement” value is given as 2.7%.
